Laboratory results: patent publication US10865222B2, “Neisseria gonorrhoeae therapeutic based on CMP-nonulosonate sugars” (priority 2014, dated 2020)
“Also recorded” adds a separate entry of the source.

Tests used:
N. gonorrhoeae F62 ΔIgtD [1] = assay: Flow cytometry for factor H binding to bacteria; format: cell-based; parameters: key to fH binding: minimal: compared to unsialylated gonococci; settings: for fH binding facilitated by CMP-Neu5Ac: analogue added within 2 min of CMP-Neu5Ac 20 μg/ml
Experimental: FIG. 3. Effects of LOS modification with various nonulosonate analogues on fH binding to N. gonorrhoeae. N. gonorrhoeae F62 ΔIgtD was grown in media alone, or media supplemented with 20 μg/ml (˜30 μM) of each of the indicated CMP-nonulosonates. Binding of bacteria to fH (10 μg/ml) was measured by flow cytometry using polyclonal goat anti-human fH. The control indicates reaction mixtures that lacked fH. Y-axis, median fluorescence of fH binding. The mean (SD) of 2 independent repeats is shown.
FIG. 7. […] A. N. gonorrhoeae F62 ΔIgtD was incubated in media containing CMP-Neu5Ac (20 μg/ml), followed […] by the addition of either CMP-Neu5Ac9Az or CMP-Leg5Ac7Ac (20, 2 or 0.2 μg/ml). Bacteria were grown for 2 h and fH binding detected by FACS using polyclonal goat anti-human fH. The Y-axis represents median fluorescence. The mean (SEM) of two independent observations is shown. B. Development of serum resistance lags behind fH binding when measured as a function of time of exposure of bacteria to CMP-Neu5Ac. CMP-Neu5Ac (20 μg/ml) was added to media containing F62 ΔIgtD and bacteria were taken at the time points indicated on the X-axis and assayed for fH binding by FACS with anti-fH mAb 90× (left Y-axis; median fluorescence (SEM)), or tested for its ability to resist killing by 10% NHS (right Y-axis; percent survival). The data represent 2-3 independent experiments. C. Representative histograms of a fH binding FACS experiment.
The addition of a terminal Neu5Ac residue to LNT-expressing LOS enhances binding of the alternative pathway inhibitor, factor H, which contributes to the ability of sialylated gonococci to resist killing by complement (7). fH binding to N. gonorrhoeae F62 ΔIgtD grown in the presence of each of the CMP-nonulosonates (20 μg/ml or 30 μM) was examined (FIG. 3). […] Reducing the CMP-nonulosonate concentrations in growth media to 2 μg/ml (3 μM) yielded similar fH binding results (FIG. 9B). Further, modification of LOS with Neu5Ac or Neu5Gc yielded similar amounts of fH binding over CMP-sialic acid concentrations ranging from 0.5 to 4 μg/ml, with near maximal fH binding observed even at the lowest concentration tested (FIG. 9C).
fH binding to bacteria was performed using flow cytometry as described previously (14). Briefly, bacteria (F62 ΔIgtD) were harvested from chocolate agar plates and grown in liquid media that contained the specified concentration of the CMP-nonulosonate as described above. Bacteria were then washed with Hanks Balanced Salt Solution (HBSS) containing 1 mM Ca^2+ and 1 mM Mg^2+ (HBSS^++) and incubated with fH purified from human plasma (Complement Technology, Inc.; concentration specified for each experiment). Bound fH was detected using either anti-fH mAb (Quidel, catalog no. A254 (mAb 90×)) or goat anti-human fH, followed by FITC conjugated anti-mouse IgG or anti-goat IgG, respectively (Sigma); both Abs had similar performance characteristics. All reaction mixtures were carried out in HBSS^++/1% BSA in a final volume of 50 μl. Flow cytometry was performed using a FACSCalibur instrument (Becton Dickinson) and data were analyzed using FlowJo (version 7.2.5; Tree Star, Inc.).

N. gonorrhoeae F62 ΔIgtD [2] = format: cell-based; parameters: key to Serum resistance: high: >100% survival in 10% serum; low: >100% survival in 3.3% serum and <10% survival in 10% serum; settings: for bacterial survival / serum resistance: all serum concentrations tested (10, 6.7, 3.3%), 30 μM; for serum resistance mediated by CMP-Neu5Ac: analogue 20, 2 or 0.2 μg/ml added 15 min after CMP-Neu5Ac 20 μg/ml, grown 2 h; for killing of bacteria made serum resistant by CMP-Neu5Ac: analogue added 120 min after CMP-Neu5Ac, data not shown; for Serum resistance: summary Table 1
Experimental: FIG. 2. […] N. gonorrhoeae F62 ΔIgtD was grown in media alone (no CMP-sialic acid added), or media that contained 20 μg/ml (˜30 μM) of each of the indicated CMP-nonulosonates. Resistance of bacteria to complement-dependent killing in the presence of 3.3%, 6.7% or 10% normal human serum (NHS) was measured in serum bactericidal assays.
FIG. 5. […] N. gonorrhoeae F62 ΔIgtD was suspended in media containing 20 μg/ml (˜30 μM) CMP-Neu5Ac. Following 15 min of incubation at 37° C., CMP-Neu5Ac9Az or CMP-Leg5Ac7Ac (at concentrations of 20, 2 or 0.2 μg/ml final) were added and bacteria were incubated for 2 h. Serum bactericidal assays were then performed using 3.3% (solid black bars) or 10% (hatched bars) NHS. Controls included bacteria in media that lacked any CMP-nonulosonate, or bacteria that were incubated in CMP-Neu5Ac only. Y-axis, % survival.
We next determined the effects of incorporation of the CMP salts of five structural analogues of Neu5Ac (Neu5Gc, Neu5Ac9Ac, Neu5Ac9Az, Neu5Gc8Me and Leg5Ac7Ac) on the ability of N. gonorrhoeae F62 ΔIgtD to resist complement-dependent killing by normal human serum at concentrations of 10, 6.7 or 3.3%. Bacteria were grown either in media alone, or media supplemented with 30 μM (˜20 μg/ml) of each of the CMP-nonulosonates.
The ability of two of the CMP-nonulosonates, CMP-Neu5Ac9Az and CMP-Leg5Ac7Ac, to counter the ability of CMP-Neu5Ac to enhance serum resistance of N. gonorrrhoeae was then examined. The analogues were added at concentrations of 20, 2 or 0.2 μg/ml to growth media 15 min after the addition of CMP-Neu5Ac (20 μg/ml) to F62 ΔIgtD.
Serum bactericidal assays were performed as described previously (11). Bacteria harvested from an overnight culture on chocolate agar plates were grown in liquid media containing the specified concentration of CMP-nonulosonate as specified for each experiment. Approximately 2000 CFU of F62 ΔIgtD were incubated with NHS (concentration specified for each experiment). The final reaction volumes were maintained at 150 μl. […]

[3] = CMP-nonulosonate 20 μg/ml or 30 μM, vs unsialylated F62 ΔIgtD

| Compound | fH binding facilitated by CMP-Neu5Ac (N. gonorrhoeae F62 ΔIgtD [1]) | fH binding (N. gonorrhoeae F62 ΔIgtD [1]; summary Table 1) | bacterial survival / serum resistance (N. gonorrhoeae F62 ΔIgtD [2]) | serum resistance mediated by CMP-Neu5Ac (N. gonorrhoeae F62 ΔIgtD [2]) | killing of bacteria made serum resistant by CMP-Neu5Ac (N. gonorrhoeae F62 ΔIgtD [2]) | Serum resistance (N. gonorrhoeae F62 ΔIgtD [2]) | fH binding (N. gonorrhoeae F62 ΔIgtD [1]; [3]) | fH binding as function of time of exposure (N. gonorrhoeae F62 ΔIgtD [1]; CMP-Neu5Ac 20 μg/ml, 2 min) | fH binding, % of maximal binding (N. gonorrhoeae F62 ΔIgtD [1]; CMP-Neu5Ac 20 μg/ml, by 16 min) [%] | fH binding as function of time of exposure (N. gonorrhoeae F62 ΔIgtD [1]; CMP-Neu5Ac 20 μg/ml, by 32 min) | fH binding (N. gonorrhoeae F62 ΔIgtD [1]; CMP-sialic acid 0.5 to 4 μg/ml, lowest concentration tested) | bacterial survival (N. gonorrhoeae F62 ΔIgtD [2]; CMP-Neu5Ac 20 μg/ml, 32 min exposure, 10% NHS) [%] | resistance to 10% serum (N. gonorrhoeae F62 ΔIgtD [2]; CMP-nonulosonate 3 μM (~2 μg/ml), 10% serum) |
| --- | --- | --- | --- | --- | --- | --- | --- | --- | --- | --- | --- | --- | --- |
| 5,7-diacetamido-3,5,7,9-tetradeoxy-D-glycero-D-galacto-nonulosonic acid [CMP-Leg5Ac7Ac] | did not interfere with fH binding | minimal | did not increase bacterial survival | blocked serum resistance; also recorded: completely blocked | did not induce any killing | none | – | – | – | – | – | – | – |
| CC(=O)N[C@H]1[C@H]([C@H](O)[C@H](O)COC(C)=O)OC(OP(=O)(O)OC[C@H]2O[C@@H](n3ccc(N)nc3=O)[C@H](O)[C@@H]2O)(C(=O)O)C[C@@H]1O (stereo partly drawn) [CMP-Neu5Ac9Ac, CMP-5-acetamido-9-O-acetyl-3,5-dideoxy-D-glycero-D-galacto-nonulosonic acid] | – | intermediate | – | – | – | low^C | intermediate | – | – | – | – | – | – |
| CC(=O)N[C@H]1[C@H]([C@H](O)[C@H](O)CN=[N+]=[N-])OC(OP(=O)(O)OC[C@H]2O[C@@H](n3ccc(N)nc3=O)[C@H](O)[C@@H]2O)(C(=O)O)C[C@@H]1O (stereo partly drawn) [CMP-Neu5Ac9Az, CMP-5-acetamido-9-azido-3,5,9-trideoxy-D-glycero-D-galacto-nonulosonic acid] | did not interfere with fH binding | minimal^A | did not increase bacterial survival | blocked serum resistance; also recorded: completely blocked | did not induce any killing | none | – | – | – | – | – | – | – |
| CC(=O)NC1C(O)CC(OP(=O)(O)OCC2OC(n3ccc(N)nc3=O)C(O)C2O)(C(=O)O)OC1C(O)C(O)CO [CMP-Neu5Ac, CMP-5-acetamido-3,5-dideoxy-D-glycero-D-galacto-nonulosonic acid, reference compound] | – | high | – | – | – | high^B (>100% survival in 10% serum) | Maximal | barely any fH binding above control levels | ~70 | near maximal binding | near maximal | ~42 | conferred resistance |
| COC(CO)C(O)C1OC(OP(=O)(O)OCC2OC(n3ccc(N)nc3=O)C(O)C2O)(C(=O)O)CC(O)C1NC(=O)CO [CMP-Neu5Gc8Me, CMP-5-hydroxyacetamido-8-O-methyl-3,5-dideoxy-D-glycero-D-galacto-nonulosonic acid] | – | minimal | – | – | – | low | – | – | – | – | – | – | – |
